# Paper PMC3547328 (Chemical communications (Cambridge, England), 2013)
# How the values were obtained:
# [1] = Fluorescence lifetime measurements; format: physicochemical; conditions: free and peptide incorporated forms
# [2] = Absorption and fluorescence; format: physicochemical
# [3] = Fluorescence spectra of NAAzAP in different solvents; format: physicochemical; conditions: upon lowering solvent polarity, λex 342 nm
# [4] = Collisional quenching experiments on NAAzAP with free amino acids and imidazole; format: physicochemical
# [5] = typical range; depends on solvent exposure and quenching; cited from earlier work
# CaM = conditions: cited from earlier work
molecule,measurement,setting,value
"N[C@@H](Cc1ccc2cccccc1-2)C(=O)O [AzAla, β-(1-Azulenyl)-L-Alanine]",fluorescence decay,[1],simple monoexponential fluorescence decay
same,extinction coefficient,[2]; S2-S0 transition,~ 4200 cm^−1M^−1
same,quantum yield,[2]; relative to tryptophan,comparable to those of tryptophan
same,apparent emission intensity,"[2]; relative to tryptophan, narrower profile of the azulene emission",nearly the same apparent emission intensity
"CCCNC(=O)C(Cc1ccc2cccccc1-2)NC(C)=O (centres unmarked) [NAAzAP, N-Acetyl-(AzulylAlanine)-propylamide]",red shift of fluorescence spectra,[3],6 nm
same,fluorescence quenching,[4]; quencher: free methionine,quenched
same,fluorescence quenching,[4]; quencher: imidazole,quenched
same,fluorescence quenching,"[4]; quencher: tryptophan, same conditions",not by tyrosine or tryptophan
same,fluorescence quenching,"[4]; quencher: tyrosine, same conditions",not by tyrosine or tryptophan
N[C@@H](Cc1c[nH]c2ccccc12)C(=O)O [Tryptophan],apparent Trp quantum yield (Φ),[5],0.35 to 0.01
Melittin: Melittin has strong affinity for CaM,affinity for CaM,CaM,strong affinity for CaM
